Measured values from publication PMC3849439, “Peptides Corresponding to the Predicted Heptad Repeat 2 Domain of the Feline Coronavirus Spike Protein Are Potent Inhibitors of Viral Infection” (PLoS ONE, 2013).
“Also recorded” adds a separate entry of the source.

Columns and labels:
[1] = test system: Feline coronavirus type II NTU156 strain; settings: for Inhibition of viral titer (%): highest concentration tested 20 μM, NTU156 MOI 0.1, fcwf-4 cells, triplicate wells; for IC50: NTU156 at MOI 0.1 preincubated with peptide 1 h, then on fcwf-4 cells 1 h, supernatant collected 48 h postinfection and titrated, CPE at 72 h, IC50 by interpolation
fcwf-4 cells = assay: MTT cytotoxicity assay; settings: 72 h at 37°C, 6.25-200 μM, absorbance 570 nm, triplicate
[2] = test system: Feline coronavirus type II NTU156 strain; assay: Combination of FP5 with human IFN-α, viral titer by plaque reduction assay; assay type: cell-based; settings: for Viral titer reduction, agent alone: supernatant collected after 48 h, triplicate

Row | Compound | Inhibition of viral titer (%) [1] | CC50 (fcwf-4 cells) | IC50 [1] | Viral titer reduction, combination ([2]; 20 μM FP5 with 10 to 1000 IU IFN-α, or 10 μM FP5 with 1000 IU IFN-α, NTU156 MOI 0.1, fcwf-4 cells, 48 h) | Inhibitory effect of the combination (in words) ([2]; 20 μM FP5 with 10 to 1000 IU IFN-α, or 10 μM FP5 with 1000 IU IFN-α, two-way analysis of variance P < 0.05) | Inhibitory effect of the combination (in words) ([2]; 10 units of IFN-α combined with 20 μM FP5) | Viral titer reduction, agent alone ([2]; FP5 20 μM alone, NTU156 MOI 0.1, fcwf-4 cells) | Viral titer reduction, agent alone ([2]; IFN-α 1000 IU alone, preincubated with cells 24 h, NTU156 MOI 0.1, fcwf-4 cells)
1 | CC[C@H](C)[C@H](NC(=O)[C@H](CCC(=O)O)NC(=O)CNC(=O)[C@@H](NC(=O)[C@H](CC(C)C)NC(=O)[C@H](CC(N)=O)NC(=O)[C@H](CC(C)C)NC(=O)[C@H](Cc1ccc(O)cc1)NC(=O)[C@@H](NC(=O)[C@H](C)NC(=O)[C@H](CC(N)=O)NC(=O)[C@@H](N)Cc1ccccc1)[C@@H](C)O)[C@@H](C)O)C(=O)N[C@@H](CC(=O)O)C(=O)N[C@@H](CC(=O)O)C(=O)N[C@@H](CC(C)C)C(=O)N[C@@H](CCC(=O)O)C(=O)N[C@@H](Cc1ccccc1)C(=O)N[C@@H](CCCNC(=N)N)C(=O)N[C@@H](CO)C(=O)N[C@@H](CCC(=O)O)C(=O)N[C@@H](CCCCN)C(=O)N[C@@H](CC(C)C)C(=O)O [FP1] | 27% | ≧200 μM | – | – | – | – | – | –
2 | CC[C@H](C)[C@H](NC(=O)[C@H](CCC(=O)O)NC(=O)CNC(=O)[C@@H](NC(=O)[C@H](CC(C)C)NC(=O)[C@H](CC(N)=O)NC(=O)[C@H](CC(C)C)NC(=O)[C@H](Cc1ccc(O)cc1)NC(=O)[C@@H](NC(=O)[C@H](C)NC(=O)[C@H](CC(N)=O)NC(=O)[C@@H](N)Cc1ccccc1)[C@@H](C)O)[C@@H](C)O)C(=O)N[C@@H](CC(=O)O)C(=O)N[C@@H](CC(=O)O)C(=O)N[C@@H](CC(C)C)C(=O)N[C@@H](CCC(=O)O)C(=O)N[C@@H](Cc1ccccc1)C(=O)N[C@@H](CCCNC(=N)N)C(=O)N[C@@H](CO)C(=O)N[C@@H](CCC(=O)O)C(=O)N[C@@H](CCCCN)C(=O)N[C@@H](CC(C)C)C(=O)N[C@@H](Cc1c[nH]cn1)C(=O)N[C@@H](CC(N)=O)C(=O)N[C@H](C(=O)N[C@H](C(=O)N[C@H](C(=O)N[C@@H](CCC(=O)O)C(=O)N[C@@H](CC(C)C)C(=O)O)C(C)C)[C@@H](C)O)[C@@H](C)O [FP2] | 29% | ≧200 μM | – | – | – | – | – | –
3 | CC[C@H](C)[C@H](NC(=O)[C@H](CC(N)=O)NC(=O)[C@H](CC(=O)O)NC(=O)[C@@H](NC(=O)[C@H](CC(C)C)NC(=O)[C@@H](NC(=O)[C@H](C)NC(=O)[C@H](CC(C)C)NC(=O)[C@H](CCC(=O)O)NC(=O)[C@@H](NC(=O)[C@@H](NC(=O)[C@@H](NC(=O)[C@H](CC(N)=O)NC(=O)[C@H](Cc1c[nH]cn1)NC(=O)[C@H](CC(C)C)NC(=O)[C@H](CCCCN)NC(=O)[C@H](CCC(=O)O)NC(=O)[C@H](CO)NC(=O)[C@H](CCCNC(=N)N)NC(=O)[C@H](Cc1ccccc1)NC(=O)[C@H](CCC(=O)O)NC(=O)[C@H](CC(C)C)NC(=O)[C@H](CC(=O)O)NC(=O)[C@H](CC(=O)O)NC(=O)[C@@H](NC(=O)[C@H](CCC(=O)O)NC(=O)CNC(=O)[C@@H](NC(=O)[C@H](CC(C)C)NC(=O)[C@H](CC(N)=O)NC(=O)[C@H](CC(C)C)NC(=O)[C@H](Cc1ccc(O)cc1)NC(=O)[C@@H](NC(=O)[C@H](C)NC(=O)[C@H](CC(N)=O)NC(=O)[C@@H](N)Cc1ccccc1)[C@@H](C)O)[C@@H](C)O)[C@@H](C)CC)[C@@H](C)O)[C@@H](C)O)C(C)C)[C@@H](C)CC)[C@@H](C)CC)C(=O)O [FP3] | 72% | ≧200 μM | 14200 nM | – | – | – | – | –
4 | CC[C@H](C)[C@H](NC(=O)[C@H](C)NC(=O)[C@H](CC(C)C)NC(=O)[C@H](CCC(=O)O)NC(=O)[C@@H](NC(=O)[C@@H](NC(=O)[C@@H](NC(=O)[C@H](CC(N)=O)NC(=O)[C@H](Cc1c[nH]cn1)NC(=O)[C@H](CC(C)C)NC(=O)[C@H](CCCCN)NC(=O)[C@H](CCC(=O)O)NC(=O)[C@H](CO)NC(=O)[C@H](CCCNC(=N)N)NC(=O)[C@H](Cc1ccccc1)NC(=O)[C@H](CCC(=O)O)NC(=O)[C@H](CC(C)C)NC(=O)[C@H](CC(=O)O)NC(=O)[C@H](CC(=O)O)NC(=O)[C@@H](NC(=O)[C@H](CCC(=O)O)NC(=O)CNC(=O)[C@@H](NC(=O)[C@H](CC(C)C)NC(=O)[C@H](CC(N)=O)NC(=O)[C@H](CC(C)C)NC(=O)[C@H](Cc1ccc(O)cc1)NC(=O)[C@@H](NC(=O)[C@H](C)NC(=O)[C@H](CC(N)=O)NC(=O)[C@@H](N)Cc1ccccc1)[C@@H](C)O)[C@@H](C)O)[C@@H](C)CC)[C@@H](C)O)[C@@H](C)O)C(C)C)C(=O)N[C@@H](CC(C)C)C(=O)N[C@H](C(=O)N[C@@H](CC(=O)O)C(=O)N[C@@H](CC(N)=O)C(=O)N[C@H](C(=O)N[C@@H](CC(N)=O)C(=O)N[C@@H](CC(N)=O)C(=O)N[C@H](C(=O)N[C@@H](CC(C)C)C(=O)N[C@H](C(=O)N[C@@H](CC(N)=O)C(=O)N[C@@H](CC(C)C)C(=O)O)C(C)C)[C@@H](C)O)[C@@H](C)CC)[C@@H](C)CC [FP4] | 93% | ≧200 μM | 1800 nM | – | – | – | – | –
5 | CC[C@H](C)[C@H](NC(=O)[C@H](C)NC(=O)[C@H](CC(C)C)NC(=O)[C@H](CCC(=O)O)NC(=O)[C@@H](NC(=O)[C@@H](NC(=O)[C@@H](NC(=O)[C@H](CC(N)=O)NC(=O)[C@H](Cc1c[nH]cn1)NC(=O)[C@H](CC(C)C)NC(=O)[C@H](CCCCN)NC(=O)[C@H](CCC(=O)O)NC(=O)[C@H](CO)NC(=O)[C@H](CCCNC(=N)N)NC(=O)[C@H](Cc1ccccc1)NC(=O)[C@H](CCC(=O)O)NC(=O)[C@H](CC(C)C)NC(=O)[C@H](CC(=O)O)NC(=O)[C@H](CC(=O)O)NC(=O)[C@@H](NC(=O)[C@H](CCC(=O)O)NC(=O)CNC(=O)[C@@H](NC(=O)[C@H](CC(C)C)NC(=O)[C@H](CC(N)=O)NC(=O)[C@H](CC(C)C)NC(=O)[C@H](Cc1ccc(O)cc1)NC(=O)[C@@H](NC(=O)[C@H](C)NC(=O)[C@H](CC(N)=O)NC(=O)[C@@H](N)Cc1ccccc1)[C@@H](C)O)[C@@H](C)O)[C@@H](C)CC)[C@@H](C)O)[C@@H](C)O)C(C)C)C(=O)N[C@@H](CC(C)C)C(=O)N[C@H](C(=O)N[C@@H](CC(=O)O)C(=O)N[C@@H](CC(N)=O)C(=O)N[C@H](C(=O)N[C@@H](CC(N)=O)C(=O)N[C@@H](CC(N)=O)C(=O)N[C@H](C(=O)N[C@@H](CC(C)C)C(=O)N[C@H](C(=O)N[C@@H](CC(N)=O)C(=O)N[C@@H](CC(C)C)C(=O)N[C@@H](CCC(=O)O)C(=O)N[C@@H](Cc1c[nH]c2ccccc12)C(=O)N[C@@H](CC(C)C)C(=O)N[C@@H](CC(N)=O)C(=O)N[C@@H](CCCNC(=N)N)C(=O)N[C@H](C(=O)N[C@@H](CCC(=O)O)C(=O)O)[C@@H](C)CC)C(C)C)[C@@H](C)O)[C@@H](C)CC)[C@@H](C)CC [FP5] | – | ≧200 μM | 1330 nM | up to 4.08 LogPFU/ml | complete inhibitory effect; also recorded: synergetic effects | complete inhibition | 1.81 LogPFU/ml | –
6 | IFN-α | – | – | – | – | – | – | – | 1.46 LogPFU/ml
